Data: patent publication US10638755B2, “Antimicrobial compositions” (Symrise AG, priority 2013, dated 2020)
Read-outs that look alike come from different tables or passages of the source. Values belong to the compound of their own block, whether it stands above or below them.

Experiments:
A. brasiliensis = test: Colony counts in formulation over 28 days and Kull Synergy Index against A. brasiliensis; type: cell-based, Aspergillus brasiliensis
Source text: To calculate the synergism between compounds of formula (I) and other antimicrobial actives, the Kull equation^1 2 was used SI=(Cmixture×PA)/CA+(Cmixture×PB)/CB (I) where • SI is the Synergy Index according to Kull^1), 2) • CA is the cell count for substance A • CB is the cell count for substance B • Cmixture is the cell count for the mixture of substances A and B • PA is the proportion of the substance A in the mixture • PB is the proportion of the substance B in the mixture.
Colony counts of <100 were arbitrarily set to 100, in order to allow for synergy calculations with the above equation. The abbreviation “n.a.” means not applicable.

Staphylococcus aureus = test: Minimum inhibitory concentration (MIC) according to DIN 58940 and Kull Synergy Index; type: cell-based; settings: for MIC: Staphylococcus aureus
Candida albicans = test: as above; type: cell-based; settings: for MIC: Candida albicans
Aspergillus brasiliensis = test: as above; type: cell-based; settings: for MIC: Aspergillus brasiliensis
Pseudomonas aeruginosa = test: as above; type: cell-based; settings: for MIC: Pseudomonas aeruginosa
Escherichia coli = test: as above; type: cell-based; settings: for MIC: Escherichia coli
mold = settings: moist alfalfa hay; Agronomy Journal 1955; cited from earlier work
[1] = test system: subcuteaneous inflammation; settings: administered intraperitoneally; Il Farmaco 2000; cited from earlier work
[2] = chemical in vitro assay; constituents of Tagetes mendocina; cited from earlier work
[3] = day 0, 1.0% (total) in formulation
[4] = day 2, 1.0% (total) in formulation
[5] = day 7, 1.0% (total) in formulation
[6] = day 14, 1.0% (total) in formulation
[7] = day 28, 1.0% (total) in formulation

Structure (SMILES): CCCCCCC(O)CO (stereo not drawn) [1,2-Octanediol]
- MIC (Staphylococcus aureus; DIN 58940): 5000 µg/mL
- MIC (Candida albicans; DIN 58940): 5000 µg/mL
- MIC (Aspergillus brasiliensis; DIN 58940): 1000 µg/mL
- MIC (Pseudomonas aeruginosa; DIN 58940): 5000 µg/mL
- MIC (Escherichia coli; DIN 58940): 2500 µg/mL

Structure (SMILES): CCCCC(CC)COCC(O)CO (stereo not drawn) [EHG, ethylhexyl glycerin]
- Colony counts (A. brasiliensis; [3]): 315.000 cfu/g formulation
- Relative colony counts (A. brasiliensis; [3]): 0.5048
- Colony counts (A. brasiliensis; [4]): 159.000 cfu/g formulation
- Relative colony counts (A. brasiliensis; [4]): 0.4762
- Colony counts (A. brasiliensis; [5]): 150.000 cfu/g formulation
- Relative colony counts (A. brasiliensis; [5]): 0.9635
- Colony counts (A. brasiliensis; [6]): 304.000 cfu/g formulation
- Relative colony counts (A. brasiliensis; [6]): 0.9635
- Colony counts (A. brasiliensis; [7]): 304.000 cfu/g formulation
- Relative colony counts (A. brasiliensis; [7]): 0.5048
- MIC values Staphylococcus aureus (Staphylococcus aureus): 2000 ppm
- MIC values Candida albicans (Candida albicans): 2000 ppm
- MIC values Aspergillus brasiliensis (Aspergillus brasiliensis): 2000 ppm
- MIC values Pseudomonas aeruginosa (Pseudomonas aeruginosa): >20000 ppm
- MIC values Escherichia coli (Escherichia coli): 2500 ppm

Structure (SMILES): CCCCCCCOCC(O)CO (stereo not drawn) [3HOPD, 3-heptyloxy-1,2-propanediol]
- Colony counts (A. brasiliensis; [3]): 220.000 cfu/g formulation
- Relative colony counts (A. brasiliensis; [3]): 1.0000
- Colony counts (A. brasiliensis; [4]): 320.000 cfu/g formulation
- Relative colony counts (A. brasiliensis; [4]): 1.4545
- Colony counts (A. brasiliensis; [5]): 340.000 cfu/g formulation
- Relative colony counts (A. brasiliensis; [5]): 1.5455
- Colony counts (A. brasiliensis; [6]): 300.000 cfu/g formulation
- Relative colony counts (A. brasiliensis; [6]): 1.3636
- Colony counts (A. brasiliensis; [7]): 170.000 cfu/g formulation
- Relative colony counts (A. brasiliensis; [7]): 0.7727

Structure (SMILES): CCCCCCCCOCC(O)CO (stereo not drawn) [Octylglycerin]
- MIC values Staphylococcus aureus (Staphylococcus aureus; DIN 58940): 1000 ppm
- MIC values Candida albicans (Candida albicans; DIN 58940): 1000 ppm
- MIC values Aspergillus brasiliensis (Aspergillus brasiliensis; DIN 58940): 500 ppm
- MIC values Pseudomonas aeruginosa (Pseudomonas aeruginosa; DIN 58940): >2000 ppm
- MIC values Escherichia coli (Escherichia coli; DIN 58940): 1000 ppm

Structure (SMILES): CCCCCCCOCC(O)CO (stereo not drawn) [Heptylglycerin]
- MIC values Staphylococcus aureus (Staphylococcus aureus; DIN 58940): 2500 ppm
- MIC values Candida albicans (Candida albicans; DIN 58940): 2000 ppm
- MIC values Aspergillus brasiliensis (Aspergillus brasiliensis; DIN 58940): 1000 ppm
- MIC values Pseudomonas aeruginosa (Pseudomonas aeruginosa; DIN 58940): 5000 ppm
- MIC values Escherichia coli (Escherichia coli; DIN 58940): 2000 ppm

Structure (SMILES): OCCCO [1,3-Propanediol]
- MIC values Staphylococcus aureus (Staphylococcus aureus; DIN 58940): 125000 ppm
- MIC values Candida albicans (Candida albicans; DIN 58940): 100000 ppm
- MIC values Aspergillus brasiliensis (Aspergillus brasiliensis; DIN 58940): 150000 ppm
- MIC values Pseudomonas aeruginosa (Pseudomonas aeruginosa; DIN 58940): 100000 ppm
- MIC values Escherichia coli (Escherichia coli; DIN 58940): 100000 ppm

Now from value to compound, other results behind:

- MIC (Staphylococcus aureus; DIN 58940): 20000 µg/mL
- MIC (Candida albicans; DIN 58940): 20000 µg/mL
- MIC (Aspergillus brasiliensis; DIN 58940): 10000 µg/mL
- MIC (Pseudomonas aeruginosa; DIN 58940): 10000 µg/mL
- MIC (Escherichia coli; DIN 58940): 10000 µg/mL
Structure (SMILES): CCCCC(O)CO (stereo not drawn) [HD, 1,2-Hexanediol]
- Colony counts (A. brasiliensis; day 0, 3.0% in formulation): 305.000 cfu/g formulation
- Relative colony counts (A. brasiliensis; day 0, 3.0% in formulation): 1.0000
- Colony counts (A. brasiliensis; day 2, 3.0% in formulation): 306.000 cfu/g formulation
- Relative colony counts (A. brasiliensis; day 2, 3.0% in formulation): 1.0033
- Colony counts (A. brasiliensis; day 7, 3.0% in formulation): 266.000 cfu/g formulation
- Relative colony counts (A. brasiliensis; day 7, 3.0% in formulation): 0.8721
- Colony counts (A. brasiliensis; day 14, 3.0% in formulation): 96.000 cfu/g formulation
- Relative colony counts (A. brasiliensis; day 14, 3.0% in formulation): 0.3148
- Colony counts (A. brasiliensis; day 28, 3.0% in formulation): <100 cfu/g formulation
- Relative colony counts (A. brasiliensis; day 28, 3.0% in formulation): 0.0003

- MIC values Staphylococcus aureus (Staphylococcus aureus; DIN 58940): 6000 ppm
- MIC values Candida albicans (Candida albicans; DIN 58940): 6000 ppm
- MIC values Aspergillus brasiliensis (Aspergillus brasiliensis; DIN 58940): 4000 ppm
- MIC values Pseudomonas aeruginosa (Pseudomonas aeruginosa; DIN 58940): 6000 ppm
- MIC values Escherichia coli (Escherichia coli; DIN 58940): 4000 ppm
Structure (SMILES): CCCCCCOC[C@@H](O)CO [Hexylglycerin]

- MIC (Staphylococcus aureus; DIN 58940): 6000 µg/mL
- MIC (Candida albicans; DIN 58940): 6000 µg/mL
- MIC (Aspergillus brasiliensis; DIN 58940): 4000 µg/mL
- MIC (Pseudomonas aeruginosa; DIN 58940): 4000 µg/mL
- MIC (Escherichia coli; DIN 58940): 4000 µg/mL
Structure (SMILES): CC(=O)c1ccc(O)cc1 [4HAP, 4-hydroxyacetophenone]
- Colony counts (A. brasiliensis; [3]): 300.000 cfu/g formulation
- Relative colony counts (A. brasiliensis; [3]): 1.0000
- Colony counts (A. brasiliensis; [4]): 56.000 cfu/g formulation
- Relative colony counts (A. brasiliensis; [4]): 0.1867
- Colony counts (A. brasiliensis; [5]): 1.900 cfu/g formulation
- Relative colony counts (A. brasiliensis; [5]): 0.0063
- Colony counts (A. brasiliensis; [6]): 1.900 cfu/g formulation
- Relative colony counts (A. brasiliensis; [6]): 0.0063
- Colony counts (A. brasiliensis; [7]): <100 cfu/g formulation
- Relative colony counts (A. brasiliensis; [7]): 0.0003
- prevention of mold growth (mold): not prevent mold growth
- anti-inflammatory activity [1]: reducing subcuteaneous inflammation
- antioxidant activity [2]: one of the active constituents

- MIC (Staphylococcus aureus; DIN 58940): 2000 µg/mL
- MIC (Candida albicans; DIN 58940): 5000 µg/mL
- MIC (Aspergillus brasiliensis; DIN 58940): 2000 µg/mL
- MIC (Pseudomonas aeruginosa; DIN 58940): 2000 µg/mL
- MIC (Escherichia coli; DIN 58940): 2000 µg/mL
Structure (SMILES): OCCCc1ccccc1 [3-Phenylpropanol]

- MIC values Staphylococcus aureus (Staphylococcus aureus; DIN 58940): 20000 ppm
- MIC values Candida albicans (Candida albicans; DIN 58940): 20000 ppm
- MIC values Aspergillus brasiliensis (Aspergillus brasiliensis; DIN 58940): 20000 ppm
- MIC values Pseudomonas aeruginosa (Pseudomonas aeruginosa; DIN 58940): 20000 ppm
- MIC values Escherichia coli (Escherichia coli; DIN 58940): 10000 ppm
Structure (SMILES): OCC(O)COCc1ccccc1 (stereo not drawn) [Benzylglycerin]
